Patent US7786152B2, “Compound” (priority 2002, dated 2010)

These compounds were tested against T1, 11 β-HSD type 1 (Rattus norvegicus, UniProt P16232) (assay: 11 β-HSD type 1 inhibition, rat liver homogenate, conversion E to F (radiometric TLC)). Settings: dose-response 1, 5, 10 and 20 μM, read-out: IC50 (11β HSD1).
T1 construct: Both the kidneys and livers were homogenised on ice in PBS-sucrose buffer; tissue Harlan Olac (rats); host or cells: Wistar rat liver homogenate supernatant
Format: biochemical
Experimental: Enzymes—Rat livers and rat kidneys were obtained from normal Wistar rats (Harlan Olac, Bicester, Oxon, UK). Both the kidneys and livers were homogenised on ice in PBS-sucrose buffer (1 g/10 ml) using an Ultra-Turrax. After the livers and kidneys were homogenised the homogenate was centrifuged for five minutes at 4000 rpm. The supernatant obtained was removed and stored in glass vials at −20° C. The amount of protein per μl of rat liver and kidney cytosol was determined using the Bradford method.
11 β-HSD type 1 is the enzyme responsible for the conversion E to F and this type of enzyme is present in rat liver. The substrate solution used in this assay contained 70,000 cpm/ml ^3H-E in PBS-sucrose and 0.5 μM of unlabelled E and co-factor NADPH (9 mg/10 ml of substrate solution). 1 ml of the substrate solution and the different amounts of rat liver homogenate was added to all tubes.
The amount of rat liver homogenate needed for an assay was determined by incubating the substrate solution with 25, 50, 100 and 150 μl for 30, 60, 90 and 120 minutes at 37° C. in a water bath with the tubes being mechanically shaken. After the incubation 50 μL of recovery solution was added, containing about 8,000 cpm/50 μL of ^14C—F and 50 μg/50 μL of unlabelled F for visualising the spot on the TLC-plate, to correct for the losses made in the next two steps. F was then extracted from the aqueous phase with 4 ml of ether (2×30 sec cycle, vortex mix). The aqueous phase was then frozen using dry-ice and the organic layer was decanted and poured into smaller tubes and evaporated. 6 drops of ether were then added to the small tubes to re-dissolve the residue which was transferred to an aluminium thin layer chromatography plate (TLC-plate). The TLC-plate was developed in a TLC tank under saturated conditions. The solvent system used was chloroform:methanol 9:1 (v/v). The F spots on the TLC-plate were visualised under UV-light and cut out from the TLC-plate (Rf=0.45). The spots from the TLC-plate were then put into scintillation vials and 0.5 ml of methanol was added to all vials to elute the radioactivity from the TLC-plate for 5 minutes. 10 ml of Ecoscint was added to the scintillation vials and they were put into the scintillation counter to count amount of product formed.
In these assays the influence of different inhibitors on the 11 β-HSD activity both in reductive (type 1) and oxidative (type 2) directions were assessed. In the reductive direction E is the substrate and F the product and visa versa in the case of oxidation. The method described here is for the oxidative direction.
The substrate solution contained about 50,000 cpm/ml ^3H—F in PBS-sucrose and 0.5 μM F. 1 ml of the substrate solution was added to each tube, the inhibitors were also added, at a 10 μM concentration, to each tube except to the “control” and “blank” tubes. 150 μL was added to all tubes except to the blanks, this was done to correct for the amount of ^3H—F spontaneously formed. The tubes were incubated for 60 minutes in a mechanically shaken water bath at 37° C. The amount of kidney liver homogenate and incubation time used resulted from the enzyme- and time-dependency assay. After incubation 50 μL of recovery was added to correct for the losses made in the next steps, containing 5000 cpm/50 μL of ^14C-E and 50 μg/50 μL of unlabelled E (to visualise the spot on the TLC-plate). The aqueous mixture was then extracted with 4 ml of ether (2×30 sec cycle, vortex mix). After freezing the aqueous phase, the ether (upper) layer was decanted into smaller tubes and evaporated at 45° C. until completely dry. The residue was then re-dissolved in 6 drops of ether and transferred to a TLC-plate. The TLC-plate was developed in chloroform:methanol (9:1 v/v) solvent system, the TLC-plate ran for about 90 minutes until the solvent front had moved about 18 cm. The position of the product E was visualised under UV-light and cut out from the TLC-plate and put into scintillation vials. […]

T1 sequence (P16232 whole entry): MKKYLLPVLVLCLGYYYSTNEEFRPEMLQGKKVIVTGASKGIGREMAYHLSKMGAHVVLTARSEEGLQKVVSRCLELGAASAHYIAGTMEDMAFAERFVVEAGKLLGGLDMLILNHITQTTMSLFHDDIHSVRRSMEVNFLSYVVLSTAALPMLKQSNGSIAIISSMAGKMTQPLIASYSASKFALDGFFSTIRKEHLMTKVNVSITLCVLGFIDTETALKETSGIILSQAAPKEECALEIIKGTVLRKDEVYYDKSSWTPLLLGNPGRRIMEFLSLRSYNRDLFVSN

First: CCCc1ccc(S(=O)(=O)Nc2ccc3sc(C)nc3c2)cc1 [compound 421]
Second: Cc1nc2cc(NS(=O)(=O)c3cccc(Cl)c3C)ccc2s1 [compound 413]
The IC50 of the first is 1.5-fold higher: 10 µM for the first, 6.6 µM for the second.

Same assay, conditions: read-out: % inhibition of 11β HSD1 @ 10 μM, 10 μM, typical sd ± 5%, means n=2

Compared with `Cc1nc2cc(NS(=O)(=O)c3ccc4c(c3)CN(C(=O)C(F)(F)F)CC4)ccc2s1` [compound 581], `Cc1nc2cc(NS(=O)(=O)c3ccc(Br)cc3)ccc2s1` [compound 519] is lower in inhibition at 10 µM: 77% for the first, 48% for the second.

Going from `Cc1nc2cc(NS(=O)(=O)c3cccc4ccccc34)ccc2s1` [compound 553] to `Cc1nc2cc(NS(=O)(=O)c3cccc4cccnc34)ccc2s1` [compound 552], the inhibition at 10 µM rises from 0.7% to 18%.

Compared with `COc1ccc(S(=O)(=O)Nc2ccc3sc(C)nc3c2)cc1` [compound 424], `Cc1nc2cc(NS(=O)(=O)c3ccc(C(C)C)cc3)ccc2s1` [compound 704] is higher in inhibition at 10 µM: 24% for the first, 38% for the second.

Compared with `Cc1nc2cc(NS(=O)(=O)c3c(C(C)C)cc(C(C)C)cc3C(C)C)ccc2s1` [compound 703], `Cc1nc2cc(NS(=O)(=O)c3c(Cl)cc(Cl)cc3Cl)ccc2s1` [compound 522] is higher in inhibition at 10 µM: 35% for the first, 37% for the second.

First: CCCc1ccc(S(=O)(=O)Nc2ccc3sc(C)nc3c2)cc1 [compound 421]
Second: Cc1nc2cc(NS(=O)(=O)c3ccc(C(C)(C)C)cc3)ccc2s1 [compound 709]
The inhibition at 10 µM of the first is higher: 60% for the first, 10% for the second.

Compared with `Cc1nc2cc(NS(=O)(=O)c3ccccc3C#N)ccc2s1` [compound 583], `CC(=O)c1ccccc1S(=O)(=O)Nc1ccc2sc(C)nc2c1` [compound 701] is higher in inhibition at 10 µM: 29% for the first, 34% for the second.

Going from `Cc1nc2cc(NS(=O)(=O)c3c(C)cccc3Cl)ccc2s1` [compound 425] to `Cc1nc2cc(NS(=O)(=O)c3cccc(Cl)c3C)ccc2s1` [compound 413], the inhibition at 10 µM rises from 40% to 53%.

First: Cc1nc2cc(NS(=O)(=O)c3ccc(Oc4ccccc4)cc3)ccc2s1 [compound 585]
Second: Cc1nc2cc(NS(=O)(=O)c3ccc(-c4ccccc4)cc3)ccc2s1 [compound 521]
The inhibition at 10 µM of the first is higher: 48% for the first, 0.5% for the second.

Compared with `Cc1nc2cc(NS(=O)(=O)c3ccc(Cl)cc3Cl)ccc2s1` [compound 412], `Cc1nc2cc(NS(=O)(=O)c3cc(Cl)ccc3Cl)ccc2s1` [compound 580] is higher in inhibition at 10 µM: 27% for the first, 75% for the second.

First: COc1ccc(Cl)cc1S(=O)(=O)Nc1ccc2sc(C)nc2c1 [compound 582]
Second: COc1cc(C)ccc1S(=O)(=O)Nc1ccc2sc(C)nc2c1 [compound 584]
The inhibition at 10 µM of the first is lower: 40% for the first, 48% for the second.

Going from `Cc1nc2cc(NS(=O)(=O)c3cccc4c(N(C)C)cccc34)ccc2s1` [compound 554] to `COC(=O)c1ccccc1S(=O)(=O)Nc1ccc2sc(C)nc2c1` [compound 705], the inhibition at 10 µM falls from 69% to 6%.

Going from `CCSc1nc2ccc(NS(=O)(=O)c3cccc(Cl)c3C)cc2s1` [compound 751] to `CCN(c1ccc2sc(C)nc2c1)S(=O)(=O)c1cccc(Cl)c1C` [compound 470], the inhibition at 10 µM rises from 10% to 39%.

Compared with `Cc1nc2cc(N(C)S(=O)(=O)c3cccc(Cl)c3C)ccc2s1` [compound 469], `Cc1nc2cc(NS(=O)(=O)c3ccc(Br)cc3C)ccc2s1` [compound 523] is lower in inhibition at 10 µM: 63% for the first, 21% for the second.

First: Cc1nc2cc(NS(=O)(=O)c3c(C)c(C)c(C)c(C)c3C)ccc2s1 [compound 710]
Second: COc1c(C)c(C)c(S(=O)(=O)Nc2ccc3sc(C)nc3c2)c(C)c1C [compound 708]
The inhibition at 10 µM of the first is higher: 55% for the first, 39% for the second.
